ChEMBL document CHEMBL3632538, “Novel 5-carboxy-8-HQ based histone demethylase JMJD2A inhibitors: introduction of an additional carboxyl group at the C-2 position of quinoline” (Eur J Med Chem, 2015)
≈ marks a conversion by molar mass, not a printed value. Calls of active or inactive are those of the source. The rule behind the calls is not given here.

Legend:
[1] = Partition co-efficient, log D of the compound at pH 7.4; assay type: physicochemical; conditions: buffer
[2] = molecular target: Egl nine homolog 1 (Homo sapiens) (UniProt Q9GZT9); assay: Displacement of F-HIF1alpha from PHD2 (unknown origin) at 50 uM by fluorescence polarization assay relative to control
[3] = Permeability of the compound at 10 mM after 4 hrs by PAMPA; assay type: physicochemical; conditions: read-out: permeability
[4] = Intrinsic aqueous solubility of the compound after 24 hrs by UV spectrophotometric analysis; assay type: physicochemical; conditions: read-out: Intrinsic_solubility
[5] = tested on: A549; assay: Cytotoxicity against human A549 cells assessed as cell viability after 48 hrs by MTT assay; assay type: functional, cell-based; conditions: A549, 48 h
[6] = tested on: MCF7; assay: Cytotoxicity against human MCF7 cells assessed as cell viability after 48 hrs by MTT assay; assay type: functional, cell-based; conditions: MCF7, 48 h
[7] = tested on: HCT-116; assay: Cytotoxicity against human HCT116 cells assessed as cell viability after 48 hrs by MTT assay; assay type: functional, cell-based; conditions: HCT-116, 48 h
[8] = molecular target: T1, Lysine-specific demethylase 4A (Homo sapiens, UniProt O75164); assay: Inhibition of recombinant human JMJD2A using biotinylated histone H3 as substrate by AlphaScreen assay
T1 sequence (O75164 whole entry): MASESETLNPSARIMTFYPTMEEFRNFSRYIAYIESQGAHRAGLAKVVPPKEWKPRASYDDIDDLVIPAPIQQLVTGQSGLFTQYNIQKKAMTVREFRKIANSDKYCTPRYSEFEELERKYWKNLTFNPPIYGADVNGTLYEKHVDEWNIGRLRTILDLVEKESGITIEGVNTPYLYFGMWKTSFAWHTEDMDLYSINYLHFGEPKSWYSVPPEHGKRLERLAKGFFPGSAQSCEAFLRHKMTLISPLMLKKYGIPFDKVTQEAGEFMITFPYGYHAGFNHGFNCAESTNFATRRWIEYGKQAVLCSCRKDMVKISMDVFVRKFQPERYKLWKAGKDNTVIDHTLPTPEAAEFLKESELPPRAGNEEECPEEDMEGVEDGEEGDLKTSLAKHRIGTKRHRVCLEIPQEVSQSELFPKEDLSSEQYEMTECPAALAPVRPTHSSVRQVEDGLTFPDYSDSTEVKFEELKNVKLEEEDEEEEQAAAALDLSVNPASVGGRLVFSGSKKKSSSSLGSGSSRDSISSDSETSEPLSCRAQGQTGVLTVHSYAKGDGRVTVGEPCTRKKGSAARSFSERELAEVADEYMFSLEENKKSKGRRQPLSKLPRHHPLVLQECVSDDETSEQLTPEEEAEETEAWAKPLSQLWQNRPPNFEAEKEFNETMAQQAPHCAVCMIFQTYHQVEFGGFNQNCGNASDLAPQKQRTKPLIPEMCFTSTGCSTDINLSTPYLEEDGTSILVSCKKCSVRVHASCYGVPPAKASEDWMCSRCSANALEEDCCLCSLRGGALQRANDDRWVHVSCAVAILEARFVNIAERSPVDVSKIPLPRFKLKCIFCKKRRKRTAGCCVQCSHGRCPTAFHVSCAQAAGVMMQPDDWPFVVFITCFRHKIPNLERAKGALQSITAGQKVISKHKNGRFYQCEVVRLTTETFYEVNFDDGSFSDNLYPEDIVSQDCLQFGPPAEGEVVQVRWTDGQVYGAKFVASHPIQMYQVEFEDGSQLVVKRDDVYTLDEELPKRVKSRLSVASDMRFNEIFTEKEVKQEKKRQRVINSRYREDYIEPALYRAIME

[9] = molecular target: T2, Lysine-specific demethylase 4A (Homo sapiens) (UniProt O75164); assay: Inhibition of JMJD2A in human HCT116 cells assessed as induction of H3K9me2 hypermethylation at 5 to 10 uM by Western blot analysis; assay type: cell-based; conditions: HCT-116
T2 sequence (whole entry): T1 sequence (O75164 whole entry)

[10] = molecular target: T2, Lysine-specific demethylase 4A (Homo sapiens); assay: Inhibition of JMJD2A in human HCT116 cells assessed as induction of H3K9me3 hypermethylation at 5 to 10 uM by Western blot analysis; assay type: cell-based; conditions: HCT-116

Sequence of Egl nine homolog 1 (Homo sapiens) (Q9GZT9 2-426 limits assumed): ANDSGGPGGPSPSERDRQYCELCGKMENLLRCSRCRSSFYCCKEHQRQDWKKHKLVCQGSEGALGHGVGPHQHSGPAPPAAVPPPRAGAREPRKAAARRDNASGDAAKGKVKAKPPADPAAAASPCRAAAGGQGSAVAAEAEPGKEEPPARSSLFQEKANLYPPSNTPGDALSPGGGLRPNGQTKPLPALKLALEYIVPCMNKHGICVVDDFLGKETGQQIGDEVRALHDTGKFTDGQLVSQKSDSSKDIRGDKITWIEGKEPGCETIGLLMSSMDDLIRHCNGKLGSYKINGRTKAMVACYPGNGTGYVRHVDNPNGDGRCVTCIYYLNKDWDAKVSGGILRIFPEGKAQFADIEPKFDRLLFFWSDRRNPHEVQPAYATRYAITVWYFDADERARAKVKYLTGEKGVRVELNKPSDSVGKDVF

logD [1]	inhibition [2]	Papp at 4 h, 10000 µM [3]	solubility at 24 h [4]	IC50 [8]	inhibition [9]	inhibition [10]	SMILES	IC50 [5]	IC50 [6]	IC50 [7]
1.2	24%	2.9 ×10⁻⁶ cm/s	1200 µM (≈ 371 µg/mL)	2.8 µM			O=C(Nc1ccccn1)c1ccc2c(C(=O)O)ccc(O)c2n1	72.2 µM	43.4 µM	67 µM
0.4	17.6%	3 ×10⁻⁶ cm/s	3800 µM (≈ 989 µg/mL)	3.7 µM			CN(C)C(=O)c1ccc2c(C(=O)O)ccc(O)c2n1	> 100 µM	> 100 µM	> 100 µM
				> 100 µM			O=C(Nc1ccccc1F)c1ccc2c(C(=O)O)ccc(O)c2n1			
				> 100 µM			O=C(Nc1ccc(F)cc1)c1ccc2c(C(=O)O)ccc(O)c2n1			
-1.9	66.3%	2 ×10⁻⁶ cm/s	1200 µM (≈ 227 µg/mL)				O=C(O)c1ccc(O)c2ncccc12	48.2 µM	66.4 µM	28.1 µM
				> 100 µM			O=C(Nc1ccc(OC(F)(F)F)cc1)c1ccc2c(C(=O)O)ccc(O)c2n1			
				> 100 µM			COc1ccc(NC(=O)c2ccc3c(C(=O)O)ccc(O)c3n2)cc1			
				82 µM			O=C(NCCCN1CCOCC1)c1ccc2c(C(=O)O)ccc(O)c2n1	> 100 µM	> 100 µM	> 100 µM
3		3.9 ×10⁻⁶ cm/s	700 µM (≈ 226 µg/mL)	> 100 µM			Cc1ccccc1NC(=O)c1ccc2c(C(=O)O)ccc(O)c2n1	94.6 µM	> 100 µM	59.6 µM
				> 100 µM			Cc1cccc(NC(=O)c2ccc3c(C(=O)O)ccc(O)c3n2)c1			
				> 100 µM			COc1cccc(NC(=O)c2ccc3c(C(=O)O)ccc(O)c3n2)c1			
	23.5%			6.2 µM			Cc1ccc(NC(=O)c2ccc3c(C(=O)O)ccc(O)c3n2)nc1	22.2 µM	> 100 µM	72.7 µM
2.7	25%	6.7 ×10⁻⁶ cm/s	1300 µM (≈ 453 µg/mL)	19 µM	Active	Active	O=C(Nc1nc2ccccc2[nH]1)c1ccc2c(C(=O)O)ccc(O)c2n1	21.7 µM	27.6 µM	1.5 µM
2.9	20.6%	3.6 ×10⁻⁶ cm/s	900 µM (≈ 338 µg/mL)	24 µM			O=C(NCCc1c[nH]c2ccccc12)c1ccc2c(C(=O)O)ccc(O)c2n1	> 100 µM	> 100 µM	68.3 µM
				> 100 µM			Cc1ccc(NC(=O)c2ccc3c(C(=O)O)ccc(O)c3n2)cc1			
				> 100 µM			O=C(NC1CCCCC1)c1ccc2c(C(=O)O)ccc(O)c2n1			
				> 100 µM			CN(C)c1ccc(NC(=O)c2ccc3c(C(=O)O)ccc(O)c3n2)cc1			
1.5	23.9%	2.3 ×10⁻⁶ cm/s	3600 µM (≈ 1040 µg/mL)	1.8 µM			CCN(CC)C(=O)c1ccc2c(C(=O)O)ccc(O)c2n1	> 100 µM	> 100 µM	11.1 µM
				> 100 µM			O=C(Nc1cccc2ccccc12)c1ccc2c(C(=O)O)ccc(O)c2n1			
0.3	18.7%	3.3 ×10⁻⁶ cm/s	4900 µM (≈ 1550 µg/mL)	1.6 µM			CN1CCN(C(=O)c2ccc3c(C(=O)O)ccc(O)c3n2)CC1	> 100 µM	95 µM	94.9 µM
				> 100 µM			O=C(Nc1ccccc1)c1ccc2c(C(=O)O)ccc(O)c2n1			
	9.1%			5.1 µM			O=C(O)c1ccc(O)c2nc(C(=O)N3CCOCC3)ccc12	> 100 µM	> 100 µM	> 100 µM
				> 100 µM			O=C(NCc1ccccc1)c1ccc2c(C(=O)O)ccc(O)c2n1			
